According to ChEMBL document CHEMBL1128323, “Antifungal agents. 9. 3-Aryl-4-[alpha-(1H-imidazol-1-yl)arylmethyl]pyrroles: a new class of potent anti-Candida agents” (1995):
≈ marks a conversion by molar mass, not a printed value.

Key:
Format in all cases: functional
[1] = system: Candida albicans; assay: Inhibitory activity against Candida albicans (40 clinical isolates), determined at pH-5.8
[2] = system: Candida albicans; assay: Inhibitory activity against the Candida albicans (40 clinical isolates), determined at pH-5.8
[3] = system: Candida; assay: Resistance against all Candida. species (40 clinical isolates) at 256 micro g/mL (pH=5.8). Activity is expressed as R%.
[4] = system: Candida albicans; assay: Inhibitory activity against Candida albicans (40 clinical isolates), determined at pH-7.2
[5] = system: Candida; assay: 90% inhibitory activity against Candida. species (40 clinical isolates) determined at pH-7.2
[6] = system: Candida; assay: Percent resistance against all Candida. species (40 clinical isolates) at 256 micro g/mL (pH=7.2), activity is expressed as R%.
[7] = system: Candida albicans; assay: 50% inhibitory activity against Candida albicans (40 clinical isolates) determined at pH-7.2
[8] = system: Candida albicans; assay: Resistance against Candida. albicans (40 clinical isolates) at 256 ug/mL (pH=7.2), activity is expressed as R%.
[9] = system: Candida albicans; assay: Inhibitory activity against the Candida albicans (40 clinical isolates), determined at pH-7.2
[10] = system: Candida albicans; assay: 50% inhibitory activity against Candida albicans (40 clinical isolates) determined at pH-5.8
[11] = system: Candida; assay: Inhibitory activity against Candida. species (40 clinical isolates), determined at pH-5.8
[12] = system: Candida; assay: Inhibitory activity against Candida. species. (40 clinical isolates), determined at pH-7.2
[13] = system: Candida; assay: 50% inhibitory activity against the Candida. species (40 clinical isolates) was determined at pH-7.2
[14] = system: Candida albicans; assay: Percent resistance against Candida albicans (40 clinical isolates) at 256 micro g/mL (pH=5.8), activity is expressed as R%.
[15] = system: Candida; assay: Inhibitory activity against Candida. species. (40 clinical isolates), determined at pH-5.8
[16] = Candida albicans, read-out: MIC50

Compound | MIC [1] | MIC90 [2] | R [3] | MIC [4] | MIC90 [5] | R [6] | MIC50 [7, 16] | R [8] | MIC90 [9] | MIC50 [10] | MIC50 [11] | MIC90 [11] | MIC [12] | MIC50 [13] | R [14] | MIC [15] | MIC50 [7]
Fc1ccc(C(c2c[nH]cc2-c2ccccc2Cl)n2ccnc2)cc1 (stereo not given) | 48.3 µg/mL (≈ 137 µM) | 64 µg/mL (≈ 182 µM) | 0% | 36.5 µg/mL (≈ 104 µM) | 256 µg/mL (≈ 728 µM) | 0% | 32 µg/mL (≈ 91 µM) | 0% | 64 µg/mL (≈ 182 µM) | 32 µg/mL (≈ 91 µM) | 64 µg/mL (≈ 182 µM) | 64 µg/mL (≈ 182 µM) | 107 µg/mL (≈ 305 µM) | 64 µg/mL (≈ 182 µM) | 0% | 71.1 µg/mL (≈ 202 µM) | 
Clc1ccc(COC(Cn2ccnc2)c2ccc(Cl)cc2Cl)c(Cl)c1 (stereo not given) [MICONAZOLE] | 5.9 µg/mL (≈ 14.2 µM) | 32 µg/mL (≈ 76.9 µM) | 0% | 6.1 µg/mL (≈ 14.7 µM) | 32 µg/mL (≈ 76.9 µM) | 0% | 2 µg/mL (≈ 4.81 µM) | 0% | 32 µg/mL (≈ 76.9 µM) | 0.5 µg/mL (≈ 1.2 µM) | 2 µg/mL (≈ 4.81 µM) | 32 µg/mL (≈ 76.9 µM) | 13 µg/mL (≈ 31.2 µM) | 16 µg/mL (≈ 38.4 µM) | 0% | 13 µg/mL (≈ 31.2 µM) | 
Clc1ccc(C(c2c[nH]cc2-c2ccc(Cl)cc2Cl)n2ccnc2)cc1 (stereo not given) | > 6.8 µg/mL | 256 µg/mL (≈ 636 µM) | 0% | > 66.4 µg/mL | > 256 µg/mL | 40% | 8 µg/mL (≈ 19.9 µM) | 5% | 256 µg/mL (≈ 636 µM) | 4 µg/mL (≈ 9.93 µM) | 16 µg/mL (≈ 39.7 µM) | 16 µg/mL (≈ 39.7 µM) | > 212 µg/mL | 64 µg/mL (≈ 159 µM) | 0% | 13.7 µg/mL (≈ 34 µM) | 
Clc1ccc(-c2c[nH]cc2C(c2ccc(Cl)cc2Cl)n2ccnc2)cc1 (stereo not given) | 3.94 µg/mL (≈ 9.78 µM) | 8 µg/mL (≈ 19.9 µM) | 0% | 3.6 µg/mL (≈ 8.94 µM) | 128 µg/mL (≈ 318 µM) | 0% | 2 µg/mL (≈ 4.97 µM) | 0% | 8 µg/mL (≈ 19.9 µM) | 2 µg/mL (≈ 4.97 µM) | 16 µg/mL (≈ 39.7 µM) | 32 µg/mL (≈ 79.5 µM) | 61 µg/mL (≈ 151 µM) | 32 µg/mL (≈ 79.5 µM) | 0% | 14.4 µg/mL (≈ 35.8 µM) | 
O=[N+]([O-])c1ccc(C(c2c[nH]cc2-c2ccc(Cl)cc2Cl)n2ccnc2)cc1 (stereo not given) | 22.9 µg/mL (≈ 55.4 µM) | 64 µg/mL (≈ 155 µM) | 0% | 38.5 µg/mL (≈ 93.2 µM) | > 256 µg/mL | 30% | 32 µg/mL (≈ 77.4 µM) | 0% | 64 µg/mL (≈ 155 µM) | 16 µg/mL (≈ 38.7 µM) | 32 µg/mL (≈ 77.4 µM) | 32 µg/mL (≈ 77.4 µM) | > 207 µg/mL | 256 µg/mL (≈ 619 µM) | 0% | 30.2 µg/mL (≈ 73.1 µM) | 
Nc1ccc(C(c2c[nH]cc2-c2ccccc2Cl)n2ccnc2)cc1 (stereo not given) | 100 µg/mL (≈ 288 µM) | 256 µg/mL (≈ 734 µM) | 50% | 131 µg/mL (≈ 376 µM) | 256 µg/mL (≈ 734 µM) | 50% | 64 µg/mL (≈ 183 µM) | 0% | 256 µg/mL (≈ 734 µM) | 64 µg/mL (≈ 183 µM) | 256 µg/mL (≈ 734 µM) | 256 µg/mL (≈ 734 µM) | > 222 µg/mL | 256 µg/mL (≈ 734 µM) | 0% | 201 µg/mL (≈ 576 µM) | 
Clc1ccc(-c2c[nH]cc2C(c2ccc(Cl)cc2)n2ccnc2)cc1 (stereo not given) | 12.3 µg/mL (≈ 33.4 µM) | 32 µg/mL (≈ 86.9 µM) | 0% | 16.3 µg/mL (≈ 44.3 µM) | 32 µg/mL (≈ 86.9 µM) | 0% | 16 µg/mL (≈ 43.4 µM) | 0% | 32 µg/mL (≈ 86.9 µM) | 8 µg/mL (≈ 21.7 µM) | 16 µg/mL (≈ 43.4 µM) | 32 µg/mL (≈ 86.9 µM) | 21.3 µg/mL (≈ 57.8 µM) | 16 µg/mL (≈ 43.4 µM) | 0% | 20.2 µg/mL (≈ 54.9 µM) | 
Clc1ccc(-c2c[nH]cc2C(c2ccc(Cl)c(Cl)c2)n2ccnc2)cc1Cl (stereo not given) | 9.2 µg/mL (≈ 21 µM) | 32 µg/mL (≈ 73.2 µM) | 50% | 14 µg/mL (≈ 31.9 µM) | > 256 µg/mL | 50% | 8 µg/mL (≈ 18.3 µM) | 0% | 32 µg/mL (≈ 73.2 µM) | 8 µg/mL (≈ 18.3 µM) | 256 µg/mL (≈ 586 µM) | > 256 µg/mL | > 309 µg/mL | > 256 µg/mL | 0% | > 328 µg/mL | 
Clc1ccccc1-c1c[nH]cc1C(c1ccccc1)n1ccnc1 (stereo not given) | 43.8 µg/mL (≈ 131 µM) | 64 µg/mL (≈ 192 µM) | 0% | 19.2 µg/mL (≈ 57.5 µM) | 64 µg/mL (≈ 192 µM) | 0% | 16 µg/mL (≈ 47.9 µM) | 0% | 32 µg/mL (≈ 95.9 µM) |  | 64 µg/mL (≈ 192 µM) | 32 µg/mL (≈ 95.9 µM) | 22.6 µg/mL (≈ 67.7 µM) | 32 µg/mL (≈ 95.9 µM) | 0% | 78.2 µg/mL (≈ 234 µM) | 32 µg/mL (≈ 95.9 µM)
Clc1ccc(C(c2c[nH]cc2-c2ccccc2Cl)n2ccnc2)cc1 (stereo not given) | 18.7 µg/mL (≈ 50.8 µM) | 32 µg/mL (≈ 86.9 µM) | 0% | 9.1 µg/mL (≈ 24.7 µM) | 16 µg/mL (≈ 43.4 µM) | 0% | 8 µg/mL (≈ 21.7 µM) | 0% | 16 µg/mL (≈ 43.4 µM) |  | 32 µg/mL (≈ 86.9 µM) | 64 µg/mL (≈ 174 µM) | 15 µg/mL (≈ 40.7 µM) | 16 µg/mL (≈ 43.4 µM) | 0% | 30.2 µg/mL (≈ 82 µM) | 16 µg/mL (≈ 43.4 µM)
